Experimental data taken from US7863271B2, “2-aminobenzoxazole carboxamides as 5HT3 modulators” (Albany Molecular Research, Inc., priority 2006, dated 2011).
Structures can show the parent of a compound that is named as a salt.

These compounds were tested against T1, 5-HT3 (Homo sapiens, UniProt P46098) (assay: Compound affinity for the human 5-HT3 receptor (Assay B), SPA radioligand binding with [9-methyl-3H]BRL-43694). Settings: Assay B (method B unless otherwise annotated); read-out: 5-HT3 Ki.
T1 sequence (P46098 24-478): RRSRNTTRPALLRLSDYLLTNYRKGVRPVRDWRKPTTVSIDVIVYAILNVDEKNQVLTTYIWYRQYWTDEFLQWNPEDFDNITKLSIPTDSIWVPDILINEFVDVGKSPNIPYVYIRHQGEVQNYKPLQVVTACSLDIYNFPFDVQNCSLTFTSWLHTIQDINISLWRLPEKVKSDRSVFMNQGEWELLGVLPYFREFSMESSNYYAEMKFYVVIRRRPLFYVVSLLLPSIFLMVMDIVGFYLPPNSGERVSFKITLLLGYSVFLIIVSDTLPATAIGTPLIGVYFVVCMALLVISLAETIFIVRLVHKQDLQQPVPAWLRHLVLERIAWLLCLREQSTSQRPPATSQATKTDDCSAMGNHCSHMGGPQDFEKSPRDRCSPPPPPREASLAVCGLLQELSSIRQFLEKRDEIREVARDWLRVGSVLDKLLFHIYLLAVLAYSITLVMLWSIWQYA
Design: purchased Perkin Elmer
Method: Compound Affinity for the human 5-HT3 Receptor (Assay B)
The relative affinity of the various compounds for the human 5-HT3 receptor was measured in a radioligand binding assay, using a scintillation proximity assay (SPA) format. Test compounds were dissolved to 10 mM in 100% DMSO, then serially diluted at 10× assay concentrations in 100% DMSO in 96-well polypropylene plates and further diluted to 4× assay concentrations with the assay buffer. […] Binding reactions were set up in wells of PicoPlates-96 (Perkin Elmer) by adding consecutively 50 μL of each competing compound or buffer, SPA beads, the radioligand and 5-HT3 receptor membranes. After 60-min incubation at room temperature on a Nutator mixer, plates were centrifuged for 15 min at 1,500 rpm, followed by incubation in the dark for 30 min. Radioactivity was counted in the TopCount microplate counter (Perkin Elmer) for 5 min. […] Specific binding was determined by subtracting nonspecific binding from total binding. All experiments were performed in duplicate using ten concentrations of a competing ligand, with ondansetron included as a control in every run. IC50 values were determined from specific binding data using XLfit4.1 curve fitting software from IDBS Ltd. Ki values were then calculated from the Cheng-Prusoff equation.

Question: How did the Ki turn out when `CC(C)OC(=O)N1C[C@H](C)N(c2nc3c(C(=O)NC4CC5CCCC(C4)N5C)cccc3o2)[C@@H](C)C1` (stereo partly drawn) [Example 143, Endo-N-(9-methyl-9-azabicyclo[3.3.1]nonan-3-yl)-2-((2S,6S)-4-(isopropoxycarbonyl)-2,6-dimethylpiperazin-1-yl)benzoxazole-4-carboxamide Hydrochloride] was run?
Answer: 1.4 nM

Question: For `C[C@H]1CNC[C@H](C)N1c1nc2c(C(=O)NC3CN4CCC3CC4)cccc2o1` (some centres unmarked) [Example 99, Hydrochloride], which Ki is on record?
Answer: 13.2 nM

Question: With `CN1CCCN(c2nc3c(C(=O)N[C@H]4C[C@H]5CCC[C@@H](C4)N5C)cccc3o2)CC1` [Example 11, Endo-N-(9-Methyl-9-azabicyclo[3.3.1]non-3-yl)-2-(4-methyl-1,4-diazepam-1-yl)benzoxazole-4-carboxamide Dihydrochloride] as the compound, how does the Ki read?
Answer: 89.6 nM

Question: For `O=C(N[C@@H]1CN2CCC1CC2)c1cccc2oc(N3CCOCC3)nc12` [Example 10, (S)—N-(quinuclidine-8-yl)-2-morpholino-benzoxazole-4-carboxamide Hydrochloride], which Ki is on record?
Answer: 164 nM

Question: `C[C@H]1CN(C)C[C@H](C)N1c1nc2c(C(=O)NC3CC4CCCC(C3)N4C)cccc2o1` (stereo partly drawn) [Example 122, Endo-N-(9-methyl-9-azabicyclo[3.3.1]nonan-3-yl)-2-((2S,6S-2,4,6-trimethylpiperazin-1-yl)benzoxazole-4-carboxamide Hydrochloride] was tested. Which Ki did it give?
Answer: 2.3 nM

Question: How did the Ki turn out when `O=C(N[C@@H]1CN2CCC1CC2)c1cccc2oc(N3CCNCC3)nc12` [Example 22, (S)—N-(quinuclidine-8-yl)-2-(piperazin-1-yl)benzoxazole-4-carboxamide Dihydrochloride] was run?
Answer: 321 nM

Question: `CC(C)C[C@H]1COCCN1c1nc2c(C(=O)NC3CC4CCCC(C3)N4C)cccc2o1` (stereo partly drawn) [Example 67, Endo-N-(9-Methyl-9-azabicyclo[3.3.1]nonan-3-yl)-2-((S)-3-isobutylmorpholino)benzoxazole-4-carboxamide Hydrochloride] was tested. Which Ki did it give?
Answer: 3.9 nM

Question: Which Ki does the source give for `CN1[C@@H]2CCC[C@H]1C[C@@H](NC(=O)c1cccc3oc(N4CCOCC4)nc13)C2` [Example 9, Endo-N-(9-Methyl-9-azabicyclo[3.3.1]non-3-yl)-2-morpholinobenzoxazole-4-carboxamide Hydrochloride] here?
Answer: 42 nM

Question: With `C[C@H]1CS(=O)(=O)C[C@H](C)N1c1nc2c(C(=O)NC3CC4CCCC(C3)N4C)cccc2o1` (stereo partly drawn) [Example 123, Endo-N-(9-methyl-9-azabicyclo[3.3.1]nonan-3-yl)-2-((3S,5S)/(3R,5R)-3,5-dimethylthiomorpholine 1,1-dioxide)benzoxazole-4-carboxamide Hydrochloride] as the compound, how does the Ki read?
Answer: 57 nM

Question: With `COCCNc1nc2c(C(=O)N[C@H]3C[C@H]4CCC[C@@H](C3)N4C)cccc2o1` [Example 38, Endo-N-(9-Methyl-9-azabicyclo[3.3.1]nonan-3-yl)-2-(2-methoxyethylamino)benzoxazole-4-carboxamide Hydrochloride] as the compound, how does the Ki read?
Answer: 7.5 nM

Question: For `CN1[C@@H]2CCC[C@H]1C[C@@H](NC(=O)c1cccc3oc(N4CCNCC4(C)C)nc13)C2` [Example 102, Endo-N-(9-Methyl-9-azabicyclo[3.3.1]nonan-3-yl)-2-(2,2-dimethylpiperazin-1-yl)benzoxazole-4-carboxamide Hydrochloride], which Ki is on record?
Answer: 15.8 nM

Question: For `CNc1nc2c(C(=O)NC3CN4CCC3CC4)cccc2o1` [Example 113, (S)—N-(quinulidin-8-yl)-2-methylaminobenzoxazole-4-carboxamide Hydrochloride], which Ki is on record?
Answer: 14.5 nM

Question: For `CN1[C@@H]2CCC[C@H]1C[C@@H](NC(=O)c1cccc3oc(N4CCN(c5ncccn5)CC4)nc13)C2` [Example 42, Endo-N-(9-Methyl-9-azabicyclo[3.3.1]nonan-3-yl)-2-(4-(pyrimidin-2-yl)piperazin-1-yl)benzoxazole-4-carboxamide Hydrochloride], which Ki is on record?
Answer: 11 nM

Question: With `CN1[C@@H]2CCC[C@H]1C[C@@H](NC(=O)c1cccc3oc(=S)[nH]c13)C2` [Example 72, Endo N-(9-methyl-9-azabicyclo[3.3.1]nonan-3-yl)-2-thioxo-2,3-dihydrobenzoxazole-4-carboxamide Hydrochloride] as the compound, how does the Ki read?
Answer: 30.8 nM

Question: Which Ki does the source give for `CN1[C@@H]2CCC[C@H]1C[C@@H](NC(=O)c1cccc3oc(N4CCC(=O)CC4)nc13)C2` [Example 92, Endo-N-(9-methyl-9-azabicyclo[3.3.1]nonan-3-yl)-2-(4-oxopiperidin-1-yl)benzoxazole-4-carboxamide Hydrochloride] here?
Answer: 21.2 nM

Question: With `CN1[C@@H]2CCC[C@H]1C[C@@H](NC(=O)c1c(F)ccc3oc(N)nc13)C2` [Example 128, Endo-N-(9-Methyl-9-azabicyclo[3.3.1]nonan-3-yl)-2-amino-5-fluorobenzoxazole-4-carboxamide Hydrochloride] as the compound, how does the Ki read?
Answer: 124 nM

Question: `CC[C@H]1COCCN1c1nc2c(C(=O)NC3CC4CCCC(C3)N4C)cccc2o1` (stereo partly drawn) [Example 36, Endo-N-(9-Methyl-9-azabicyclo[3.3.1]nonan-3-yl)-2-((S)-3-ethylmorpholine)benzoxazole-4-carboxamide Hydrochloride] was tested. Which Ki did it give?
Answer: 4.7 nM

Question: With `CN1C[C@H]2C[C@@H](NC(=O)c3cccc4oc(Nc5ccccc5)nc34)C[C@@H](C1)N2C` [Example 51, Endo-N-(3,9-Dimethyl-3,9-diazabicyclo[3.3.1]nonan-7-yl)-2-(phenylamino)benzoxazole-4-carboxamide Hydrochloride] as the compound, how does the Ki read?
Answer: 212 nM

Question: `C[C@H]1CNC[C@H](C)N1c1nc2c(C(=O)NC3CC4CCCC(C3)N4C)cccc2o1` (stereo partly drawn) [Example 73, Endo-N-(9-Methyl-9-azabicyclo[3.3.1]nonan-3-yl)-2-((2S,6S)-2,6-dimethylpiperazin-1-yl)benzoxazole-4-carboxamide Hydrochloride] was tested. Which Ki did it give?
Answer: 2.2 nM

Question: `CNc1nc2c(C(=O)N[C@H]3C[C@H]4CCC[C@@H](C3)N4C)cccc2o1` [Example 34, Endo-N-(9-Methyl-9-azabicyclo[3.3.1]non-3-yl)-2-(methylamino)benzoxazole-4-carboxamide Hydrochloride] was tested. Which Ki did it give?
Answer: 5.3 nM

Question: With `Cc1nc[nH]c1CNC(=O)c1cc(Cl)cc2oc(N)nc12` [Example 145, N-((4-methyl-1H-imidazol-5-yl)methyl)-2-amino-6-chlorobenzoxazole-4-carboxamide] as the compound, how does the Ki read?
Answer: 127 nM

Question: How did the Ki turn out when `C[C@H]1CN(Cc2ccccc2)C(=O)[C@H](C)N1c1nc2c(C(=O)N[C@@H]3CN4CCC3CC4)cccc2o1` [Example 142, (S)—N-(quinuclidine-8-yl) 2-((2S,6S)-4-benzyl-2,6-dimethyl-3-oxopiperazine-1-yl)benzoxazole-4-carboxamide Hydrochloride] was run?
Answer: 11.5 nM

Question: `C[C@H]1COC[C@H](C)N1c1nc2c(C(=O)N[C@@H]3CN4CCC3CC4)cccc2o1` [Example 90, (S)—N-(quinuclidine-8-yl)-2-((3S,5S)-3,5-Dimethylmorpholino)benzoxazole-4-carboxamide Hydrochloride] was tested. Which Ki did it give?
Answer: 6.8 nM

Question: How did the Ki turn out when `CC[C@H]1COC[C@H](C)N1c1nc2c(C(=O)NC3CC4CCCC(C3)N4C)cccc2o1` (stereo partly drawn) [Example 87, Endo-N-(9-Methyl-9-azabicyclo[3.3.1]nonan-3-yl)-2-((3 S,5S)-3-ethyl-5-methylmorpholino)benzoxazole-4-carboxamide Hydrochloride] was run?
Answer: 1 nM

Question: How did the Ki turn out when `CC(C)[C@@H]1COCCN1c1nc2c(C(=O)NC3CC4CCCC(C3)N4C)cccc2o1` (stereo partly drawn) [Example 152, Endo-N-(9-Methyl-9-azabicyclo[3.3.1]nonan-3-yl)-2-((R)-3-isopropylmorpholino)benzoxazole-4-carboxamide Hydrochloride] was run?
Answer: 75 nM

Question: With `COC(=O)N1C[C@H](C)N(c2nc3c(C(=O)NC4CC5CCCC(C4)N5C)cccc3o2)[C@@H](C)C1` (stereo partly drawn) [Example 125, Endo-(3S,5S)-Methyl 3,5-dimethyl-4-(4-(9-methyl-9-azabicyclo[3.3.1]nonan-3-ylcarbamoyl)benzoxazol-2-yl)piperazine-1-carboxylate Hydrochloride] as the compound, how does the Ki read?
Answer: 2.1 nM

Question: Which Ki does the source give for `CC[C@@H]1COCCN1c1nc2c(C(=O)NC3CC4CCCC(C3)N4C)cccc2o1` (stereo partly drawn) [Example 151, Endo-N-(9-Methyl-9-azabicyclo[3.3.1]nonan-3-yl)-2-((R)-3-ethylmorpholino)-benzoxazole-4-carboxamide Hydrochloride] here?
Answer: 34 nM

Question: With `CN1CC2CC(NC(=O)c3cccc4oc(N5CCOCC5)nc34)CC(C1)N2C` (stereo not drawn) [Example 43, Exo-N-(3,9-Dimethyl-3,9-diazabicyclo[3.3.1]nonan-7-yl)-2-morpholinobenzoxazole-4-carboxamide Hydrochloride] as the compound, how does the Ki read?
Answer: 480 nM

Question: For `CN1[C@@H]2CCC[C@H]1C[C@@H](NC(=O)c1cccc3oc(NCCN4CCOCC4)nc13)C2` [Example 33, Endo-N-(9-Methyl-9-azabicyclo[3.3.1]nonan-3-yl)-2-(2-morpholinoethylamino)benzoxazole-4-carboxamide Trihydrochloride], which Ki is on record?
Answer: 168 nM
